Results from patent US20200325449A1, “COMPLEMENT INHIBITION FOR IMPROVING CELL VIABILITY” (THE CLEVELAND CLINIC FOUNDATION, priority 2016, published 2020).
Entries after “also recorded” stand apart in the source; their conditions may differ.

Experiments:
C3aR on neutrophils = molecular target: T1, C3aR on neutrophils (Homo sapiens, UniProt Q16581); test: Neutrophil- and NHS-mediated MSC damage assay with C3aR antagonist; assay type: cell-based; details: HL60-derived neutrophils plus 30% NHS; antagonist alone, 10 μM
T1 construct: endogenous in cells; host or cells: human neutrophils from donor blood or differentiated from HL-60 cells
T1 sequence (Q16581 1-482): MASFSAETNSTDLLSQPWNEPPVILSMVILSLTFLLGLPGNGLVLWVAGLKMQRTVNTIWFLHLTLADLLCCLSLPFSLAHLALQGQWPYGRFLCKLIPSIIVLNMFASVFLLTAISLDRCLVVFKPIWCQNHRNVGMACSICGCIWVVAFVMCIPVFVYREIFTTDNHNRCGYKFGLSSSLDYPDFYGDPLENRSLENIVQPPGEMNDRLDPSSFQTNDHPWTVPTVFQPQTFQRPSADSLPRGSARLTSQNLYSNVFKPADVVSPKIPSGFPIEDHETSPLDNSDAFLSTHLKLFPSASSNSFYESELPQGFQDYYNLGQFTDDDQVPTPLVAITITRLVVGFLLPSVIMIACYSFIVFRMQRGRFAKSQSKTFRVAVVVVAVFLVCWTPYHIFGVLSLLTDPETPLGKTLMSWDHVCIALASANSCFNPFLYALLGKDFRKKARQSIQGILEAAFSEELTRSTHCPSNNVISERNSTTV
Protocol: Neutrophil-mediated MSC damage assay. Human neutrophils, either purified from healthy donor peripheral blood mononuclear cells (PBMCs) by Ficoll centrifugation (provided by the Hematopoietic Stem Cells Core Facility at Case Western Reserve University) or differentiated from the neutrophil progenitor cell line HL-60 (ATCC), were used. Collins et al., Proc Natl Acad Sci USA. 1978; 75:2458-62. In some experiments, neutrophil-mediated MSC damage was assessed using a similar BCECF-based assay to that already described. In brief, 2×10^4 MSCs were labeled with BCECF-AM as described above, then, after washing, the labeled MSC were incubated for 30 min at 37° C. with different numbers of neutrophils in the presence or absence of 30% NHS in 100 μl of GVB++ buffer with various concentrations of the neutrophil function inhibitor wortmannin that inhibits oxidative burst (Sue-A-Quan et al., Journal of cellular physiology. 1997; 172:94-108) (Cayman Chemical, Ann Arbor, Mich.) and released BCECF in the supernatants was measured as described. The percentage BCECF release (cell injury) was calculated as above. […]

MSCs [1] = test: In vitro damage of MSCs (BCECF release) after contact with serum; assay type: cell-based; details: MSCs cultured with Neu5AC (lower Neu5GC levels) vs without; 20% or 30% normal human serum
Protocol: Measurement of in vitro damage of MSCs. An established fluorescence dye release assay was used to assess MSC injury after contact with serum. In brief, 2×10^5 heparin-painted or mock-painted MSCs were first loaded by incubation for 30 min at 37° C. with 5 μM 2′,7′-bis-(2-carboxyethyl)-5-(and-6)-carboxyfluorescein acetoxymethyl ester (BCECF-AM) (Thermo Fisher Scientific™, Grand Island, N.Y.). After 3 washes, the BCECF-loaded MSCs were incubated for 30 min at 37° C. with 20 or 30% normal human serum in 100 μL of GVB++, then the cells were removed by centrifugation and released BCECF in the supernatant measured on a SpectraMax Gemini XS (Molecular Devices, Sunnyvale, Calif.) with excitation and emission wavelengths, respectively, of 485 nm and 538 nm. The MSC damage (percentage of BCECF release) was calculated as ([A−B]/[C−B])×100%, where A represents the mean experimental BCECF release, B the mean spontaneous BCECF release, and C the mean maximum BCECF release induced by incubating the cells with 0.1% Triton-X100.

Neu5GC on MSCs = test: Neu5GC detection on MSCs; assay type: cell-based, human; details: MSCs cultured 7 days with Neu5AC in complete medium vs without
Protocol: Neu5GC detection on MSCs. This was performed as described previously by Ghaderi et al. In brief, after blocking with a 0.5% solution of fish skin gelatin (Sigma-Aldrich, St. Louis, Mo.), MSCs were incubated for 30 min on ice with 5 μg/ml of chicken anti-Neu5GC IgY or control IgY, then were washed, stained with 5 μg/ml of fluorescein isothiocyanate (FITC)-labeled anti-IgY antibody (Jackson ImmunoResearch Laboratories, West Grove, Pa.), and analyzed on a flow cytometer (BD FACSCalibur, San Jose, Calif.).

[2] = tested on: human IgGs and IgMs on MSCs; test: MSC serum immunoglobulin binding assay; assay type: cell-based; details: MSCs cultured with Neu5AC, then pooled normal human serum
Protocol: MSC serum immunoglobulin binding assay. MSCs (0.5×10^6) cultured in the presence or absence of 3 mM of Neu5AC for a week were incubated for 30 min on ice with 30% pooled normal human serum in PBS. After washing, the cells were stained for cell surface-bound human IgGs and IgMs with 2 μg/ml of anti-human IgG or anti-human IgM antibodies (Jackson ImmunoResearch Laboratories, West Grove, Pa.) and examined by flow cytometry.

[3] = tested on: complement classical pathway; test: Complement classical pathway activation ex vivo assay (EshA C3b deposition); assay type: in vivo; details: plasma of WT C57BL/6 mice 30 min after s.c. heparin 20 U/mouse vs saline
Protocol: (§1) Complement alternative pathway and classical pathway activation ex vivo assays. Mice were injected subcutaneously (s.c.) with 20 U of heparin (MP Biomedicals, Solon, Ohio) in saline or saline alone, then blood samples were collected 30 min later and immediately centrifuged for 5 min at 4° C. to collect the plasma. The activity of the complement alternative pathway was assessed using a zymosan C3b deposition assay and complement classical pathway activity was measured using an antibody-sensitized sheep erythrocytes (EshA) C3b deposition assay.

[4] = tested on: complement alternative pathway; test: Complement alternative pathway activation ex vivo assay (zymosan C3b deposition); assay type: in vivo; details: plasma of WT C57BL/6 mice 30 min after s.c. heparin 20 U/mouse vs saline
Protocol: as §1

MSCs [5] = test: In vivo damage of MSCs (BCECF release in plasma); design: species or system mice; details: BCECF-labeled MSCs infused via tail vein 10 min after s.c. heparin vs saline
Protocol: Measurement of in vivo damage of MSCs. In vivo MSC damage after infusion was also examined using a BCECF release assay. In brief, each mouse was injected subcutaneously with 500 U of heparin in saline or saline alone, then 1×10^6 MSCs labeled with BCECF were injected by the tail vein, then blood samples were collected after 0, 20, 40, and 60 min and released BCECF in the plasma measured on a SpectraMax Gemini XS (Molecular Devices, Sunnyvale, Calif.) as above.
To evaluate in vivo damage to MSCs with or without heparin painting, 0.5×10^6 heparin-painted or mock-painted MSCs were labeled with BCECF, then injected into the tail vein and blood sample collected and the plasma assayed for levels of released BCECF as above.

primary neutrophils = test: Primary neutrophil-mediated MSC damage with purified C5a; assay type: cell-based; details: purified human C5a 50 ng/ml, no NHS, 4 h
Protocol: Neutrophil-mediated MSC damage assay. Human neutrophils, either purified from healthy donor peripheral blood mononuclear cells (PBMCs) by Ficoll centrifugation (provided by the Hematopoietic Stem Cells Core Facility at Case Western Reserve University) or differentiated from the neutrophil progenitor cell line HL-60 (ATCC), were used. Collins et al., Proc Natl Acad Sci USA. 1978; 75:2458-62. In some experiments, neutrophil-mediated MSC damage was assessed using a similar BCECF-based assay to that already described. In brief, 2×10^4 MSCs were labeled with BCECF-AM as described above, then, after washing, […] neutrophils in the presence or absence of 30% NHS in 100 μl of GVB++ buffer with various concentrations of the neutrophil function inhibitor wortmannin that inhibits oxidative burst (Sue-A-Quan et al., Journal of cellular physiology. 1997; 172:94-108) (Cayman Chemical, Ann Arbor, Mich.) and released BCECF in the supernatants was measured as described. The percentage BCECF release (cell injury) was calculated as above. In some experiments, a C5aR antagonist (JPE1375, Calbiochem, Billerica, Mass.)[27] or a C3aR antagonist (SB 290157, Calbiochem, Billerica, Mass.)[28] were added, both at […], to assess the role of C3aR and C5aR on neutrophils, while, in other experiments, NHS was omitted and 50 ng/ml of purified C5a (Complement technology Inc, Tyler, Tex.) added instead.

neutrophils = details: Ehrengruber et al. 1994; cited from earlier work

NC(N)=NCCC[C@H](NC(=O)COCC(c1ccccc1)c1ccccc1)C(=O)O [C3aR antagonist]
neutrophil-mediated MSC damage (BCECF release) (C3aR on neutrophils): no appreciable effect

CC(=O)N[C@H]1[C@H]([C@H](O)[C@H](O)CO)OC(O)(C(=O)O)C[C@@H]1O (stereo partly drawn) [Neu5AC, N-acetylneuraminic acid]
complement-mediated MSC injury (MSCs [1]): less complement-mediated injury; also recorded: moderate reduction
Neu5GC levels on the MSC surface (Neu5GC on MSCs): significantly reduced
amount of bound IgM and IgG on MSCs [2]: decrease

heparin
C3 deposition on the surface of EshA (classical pathway) [3]: markedly reduced
C3 deposition on the surface of zymosan (alternative pathway) [4]: markedly reduced
in vivo MSC cell damage (released BCECF in the plasma) (MSCs [5]): protected

B1: C5a: purified human C5a, anaphylatoxin (Complement technology Inc) (protein, UniProt P01031 678-751, looked up)
C5a anaphylatoxin: TLQKKIEEIAAKYKHSVVKKCCYDGACVNNDETCEQRAARISLGPRCIKAFTECCVVASQLRANISHKDMQLGR
modifications: C5a anaphylatoxin
MSC damage by primary neutrophils (primary neutrophils): significant MSC damage
potency in activating neutrophils relative to C3a (neutrophils): 50-100 times
